Test results taken from ChEMBL document CHEMBL5543172, “Novel Isoalantolactone-Based Derivatives as Potent NLRP3 Inflammasome Inhibitors: Design, Synthesis, and Biological Characterization” (J Med Chem, 2024).
Calls of active or inactive are those of the source. The rule behind the calls is not given here.

How the values were obtained:
[1] = target: Alpha-1A adrenergic receptor (Homo sapiens) (UniProt P35348); assay: Activation of alpha 1A adrenergic receptor (unknown origin) at 1 uM relative to control
[2] = Drug distribution in C57BL/6 mouse colon at 30 mg/kg, ip measured after 0.5 hrs by LC-MS/MS analysis; format: ADME, organism-based; conditions: read-out: Drug uptake
THP-1 [3] = assay: Inhibition of pyroptosis in LPS/nigericin induced PMA-differentiated human THP-1 cells assessed as reduction in red fluorescence production preincubated with LPS for 3 hrs followed by compound addition for 40 mins and further stimulated with nigericin for 40 mins by PI staining based inverted microscopy based analysis; format: functional, cell-based; conditions: dose 0.25-1 µM, time 80.0 min
[4] = target: Cannabinoid receptor 2 (Homo sapiens) (UniProt P34972); assay: Inhibition of CB2 receptor (unknown origin) at 1 uM relative to control
[5] = target: Mu-type opioid receptor (Homo sapiens) (UniProt P35372); assay: Inhibition of mu opioid receptor (unknown origin) at 1 uM relative to control
[6] = target: Prostaglandin E2 receptor EP2 subtype (Homo sapiens) (UniProt P43116); assay: Activation of EP2 receptor (unknown origin) at 1 uM relative to control
Cytochrome P450 3A4 = Cytochrome P450 3A4 (Homo sapiens, UniProt P08684); assay: Inhibition of CYP3A4 in human liver microsomes using midazolam as substrate preincubated for 5 mins followed by NADPH addition and measured after 30 to 60 mins by LC-MS/MS analysis; format: ADME, Microsome
[7] = target: Histamine H1 receptor (Homo sapiens) (UniProt P35367); assay: Inhibition of Histamine H1 receptor (unknown origin) at 1 uM relative to control
HEK293T = assay: Inhibition of HA-NLRP3 C279A mutant/FLAG tagged NEK7 interaction (unknown origin) transfected in HEK293T cells at 1 uM incubated for 24 hrs by Western blot analysis; format: cell-based; conditions: Homo sapiens
Cytochrome P450 2D6 = Cytochrome P450 2D6 (Homo sapiens, UniProt P10635); assay: Inhibition of CYP2D6 in human liver microsomes using dextromethorphan as substrate preincubated for 5 mins followed by NADPH addition and measured after 30 to 60 mins by LC-MS/MS analysis; format: ADME, Microsome
[8] = target: Prostaglandin G/H synthase 2 (Homo sapiens) (UniProt P35354); assay: Inhibition of COX2 (unknown origin) at 1 uM relative to control
Mus musculus [9] = assay: Anti-colitis activity against DSS-induced ulcerative colitis C57BL/6 mouse model assessed as alleviation of mucosal damage in colon at 15 to 30 mg/kg, ip administered daily and measured after 10 days by H and E staining based analysis; format: functional, organism-based; conditions: dose 15-30 mg/kg, time 10.0 day
[10] = target: 5-hydroxytryptamine receptor 7 (Homo sapiens) (UniProt P34969); assay: Inhibition of 5-HT7 receptor (unknown origin) at 1 uM relative to control
BMDM [11] = assay: Induction of DNA damage in mouse BMDM cells assessed as DNA fragmentation at 1 uM measured after 24 hrs by fluorescence microscope based comet assay; format: functional, cell-based
[12] = target: 3',5'-cyclic-AMP phosphodiesterase 4D (Homo sapiens) (UniProt Q08499); assay: Inhibition of PDE4D2 (unknown origin) at 1 uM relative to control
Cytochrome P450 2E1 = Cytochrome P450 2E1 (Homo sapiens, UniProt P05181); assay: Inhibition of CYP2E1 in human liver microsomes using chlorzoxazone as substrate preincubated for 5 mins followed by NADPH addition and measured after 30 to 60 mins by LC-MS/MS analysis; format: ADME, Microsome
THP-1 [13] = assay: Cytotoxicity against human THP-1 cells at 0.25 to 2 uM measured after 24 hrs by CCK-8 method; format: functional, cell-based; conditions: dose 0.25-2 µM
[14] = target: Transient receptor potential cation channel subfamily V member 1 (Homo sapiens) (UniProt Q8NER1); assay: Inhibition of TRPV1 (unknown origin) at 1 uM relative to control
[15] = target: P2X purinoceptor 3 (Homo sapiens) (UniProt P56373); assay: Inhibition of P2X3 (unknown origin) at 1 uM relative to control
[16] = target: Androgen receptor (Homo sapiens) (UniProt P10275); assay: Activation of Androgen receptor (unknown origin) at 1 uM relative to control
Mus musculus [17] = assay: Anti-colitis activity against DSS-induced ulcerative colitis C57BL/6 mouse model assessed as suppression of caspase-1 activation at 15 to 30 mg/kg, ip by Western blot analysis; format: functional, organism-based; conditions: dose 15-30 mg/kg
[18] = Drug distribution in C57BL/6 mouse plasma at 30 mg/kg, ip measured after 0.5 hrs by LC-MS/MS analysis; format: ADME, organism-based
Cytochrome P450 2C9 = Cytochrome P450 2C9 (Homo sapiens, UniProt P11712); assay: Inhibition of CYP2C9 in human liver microsomes using tolbutamide as substrate preincubated for 5 mins followed by NADPH addition and measured after 30 to 60 mins by LC-MS/MS analysis; format: ADME, Microsome
[19] = target: Cannabinoid receptor 2 (Homo sapiens) (UniProt P34972); assay: Activation of CB2 receptor (unknown origin) at 1 uM relative to control
[20] = target: Transient receptor potential cation channel subfamily V member 1 (Homo sapiens) (UniProt Q8NER1); assay: Activation of TRPV1 (unknown origin) at 1 uM relative to control
[21] = target: NACHT, LRR and PYD domains-containing protein 3 (Mus musculus) (UniProt Q8R4B8); assay: Inhibition of NLRP3 inflammasome activation in LPS/nigericin induced mouse BMDM cells assessed as reduction in GSDMD-N expression at 0.25 to 1 uM preincubated with LPS for 3 hrs followed by compound addition for 40 mins and further stimulated with nigericin for 40 mins by Western blot analysis; format: cell-based; conditions: dose 0.25-1 µM, time 80.0 min
[22] = Cytotoxicity against human PBMC cells at 0.08 to 0.63 uM measured after 24 hrs by CCK-8 method; format: toxicity, cell-based; conditions: dose 0.08-0.63 µM
BMDM [23] = assay: Cytotoxicity against mouse BMDM cells at 4 uM measured after 24 hrs by CCK-8 method; format: toxicity, cell-based
[24] = target: Adenosine receptor A2a (Homo sapiens) (UniProt P29274); assay: Activation of adenosine A2A receptor (unknown origin) at 1 uM relative to control
[25] = target: Substance-P receptor (Homo sapiens) (UniProt P25103); assay: Activation of NK1 receptor (unknown origin) at 1 uM relative to control
[26] = target: NACHT, LRR and PYD domains-containing protein 3 (Mus musculus) (UniProt Q8R4B8); assay: Inhibition of NLRP3 inflammasome activation in LPS/Nigericin induced mouse BMDM cells assessed as effect on pro-IL-1 beta expression at 0.25 to 1 uM preincubated with LPS for 3 hrs followed by compound addition for 40 mins and further stimulated with nigericin for 40 mins by Western blot analysis; format: cell-based; conditions: dose 0.25-1 µM, time 80.0 min
BMDM [27] = assay: Cytotoxicity against mouse BMDM cells at 0.25 to 2 uM measured after 24 hrs by CCK-8 method; format: toxicity, cell-based; conditions: dose 0.25-2 µM
[28] = target: Glucocorticoid receptor (Homo sapiens) (UniProt P04150); assay: Inhibition of GR receptor (unknown origin) at 1 uM relative to control
Cytochrome P450 2B6 = Cytochrome P450 2B6 (Homo sapiens, UniProt P20813); assay: Inhibition of CYP2B6 in human liver microsomes preincubated for 5 mins followed by NADPH addition and measured after 30 to 60 mins by LC-MS/MS analysis; format: ADME, Microsome
THP-1 [29] = assay: Inhibition of NLRP3-ASC interaction in LPS/nigericin stimulated human THP-1 cells at 1 uM preincubated with LPS for 3 hrs followed by compound addition for 40 mins and further stimulated with nigericin for 40 mins by immunoprecipitation analysis; format: cell-based; conditions: time 80.0 min

Transient receptor potential cation channel subfamily V member 1 (Homo sapiens), sequence (Q8NER1 whole entry, the tested form may be a part): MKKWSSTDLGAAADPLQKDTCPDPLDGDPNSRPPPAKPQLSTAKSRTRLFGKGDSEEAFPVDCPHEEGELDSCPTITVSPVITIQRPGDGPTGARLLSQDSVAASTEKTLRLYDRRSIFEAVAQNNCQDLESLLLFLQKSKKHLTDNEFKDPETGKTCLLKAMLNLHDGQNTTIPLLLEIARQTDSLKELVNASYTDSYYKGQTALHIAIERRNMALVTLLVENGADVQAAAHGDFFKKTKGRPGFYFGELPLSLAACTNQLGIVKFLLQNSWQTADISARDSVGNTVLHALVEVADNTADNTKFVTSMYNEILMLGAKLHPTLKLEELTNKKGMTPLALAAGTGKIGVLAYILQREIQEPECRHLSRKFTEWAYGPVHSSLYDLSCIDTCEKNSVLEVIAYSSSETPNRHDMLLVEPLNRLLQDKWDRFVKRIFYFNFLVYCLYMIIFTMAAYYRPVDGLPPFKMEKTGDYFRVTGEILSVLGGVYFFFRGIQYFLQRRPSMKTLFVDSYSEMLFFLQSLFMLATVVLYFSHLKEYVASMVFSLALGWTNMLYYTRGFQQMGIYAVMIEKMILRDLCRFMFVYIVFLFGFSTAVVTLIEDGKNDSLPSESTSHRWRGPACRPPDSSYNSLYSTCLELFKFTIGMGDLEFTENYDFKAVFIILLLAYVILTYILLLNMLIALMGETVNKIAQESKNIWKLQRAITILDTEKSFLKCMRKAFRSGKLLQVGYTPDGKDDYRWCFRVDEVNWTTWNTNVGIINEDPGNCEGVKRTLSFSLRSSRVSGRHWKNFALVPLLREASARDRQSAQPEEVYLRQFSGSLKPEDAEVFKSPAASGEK
NACHT, LRR and PYD domains-containing protein 3 (Mus musculus), sequence (Q8R4B8 whole entry, the tested form may be a part): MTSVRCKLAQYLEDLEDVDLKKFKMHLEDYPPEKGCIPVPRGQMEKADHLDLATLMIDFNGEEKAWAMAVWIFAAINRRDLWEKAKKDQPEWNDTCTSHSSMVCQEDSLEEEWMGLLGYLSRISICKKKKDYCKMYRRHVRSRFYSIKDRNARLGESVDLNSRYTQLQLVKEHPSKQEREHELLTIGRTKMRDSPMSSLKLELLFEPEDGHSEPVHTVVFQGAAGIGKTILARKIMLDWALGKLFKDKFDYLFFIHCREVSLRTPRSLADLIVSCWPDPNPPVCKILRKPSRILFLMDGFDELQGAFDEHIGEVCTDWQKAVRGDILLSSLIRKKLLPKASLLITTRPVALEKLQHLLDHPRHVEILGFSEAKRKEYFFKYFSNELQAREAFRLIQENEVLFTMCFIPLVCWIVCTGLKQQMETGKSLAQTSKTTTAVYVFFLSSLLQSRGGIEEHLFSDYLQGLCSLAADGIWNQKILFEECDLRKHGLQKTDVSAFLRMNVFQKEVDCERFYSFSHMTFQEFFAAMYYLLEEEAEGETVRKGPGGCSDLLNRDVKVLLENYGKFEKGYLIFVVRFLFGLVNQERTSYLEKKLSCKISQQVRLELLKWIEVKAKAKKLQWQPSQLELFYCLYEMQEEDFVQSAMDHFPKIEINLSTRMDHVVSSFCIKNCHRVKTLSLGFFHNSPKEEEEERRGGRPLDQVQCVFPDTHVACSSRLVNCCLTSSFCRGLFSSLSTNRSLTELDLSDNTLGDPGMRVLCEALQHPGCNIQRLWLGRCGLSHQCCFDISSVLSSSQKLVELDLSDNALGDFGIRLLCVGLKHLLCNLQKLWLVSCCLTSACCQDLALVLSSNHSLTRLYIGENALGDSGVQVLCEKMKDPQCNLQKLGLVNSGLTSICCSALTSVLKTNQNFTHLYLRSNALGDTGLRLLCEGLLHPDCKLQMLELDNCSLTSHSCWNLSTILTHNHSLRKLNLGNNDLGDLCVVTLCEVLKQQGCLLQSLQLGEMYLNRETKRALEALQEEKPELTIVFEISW
Cannabinoid receptor 2 (Homo sapiens), sequence (P34972 whole entry): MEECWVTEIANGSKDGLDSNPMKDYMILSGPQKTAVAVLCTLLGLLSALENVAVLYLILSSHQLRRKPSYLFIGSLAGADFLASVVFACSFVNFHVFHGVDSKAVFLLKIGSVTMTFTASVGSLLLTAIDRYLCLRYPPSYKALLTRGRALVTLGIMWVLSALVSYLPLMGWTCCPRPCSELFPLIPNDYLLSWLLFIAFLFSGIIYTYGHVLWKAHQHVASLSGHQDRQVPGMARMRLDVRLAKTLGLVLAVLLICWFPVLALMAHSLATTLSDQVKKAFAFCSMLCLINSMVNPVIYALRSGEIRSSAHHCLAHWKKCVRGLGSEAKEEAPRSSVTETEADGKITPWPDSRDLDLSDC
5-hydroxytryptamine receptor 7 (Homo sapiens), sequence (P34969 whole entry, the tested form may be a part): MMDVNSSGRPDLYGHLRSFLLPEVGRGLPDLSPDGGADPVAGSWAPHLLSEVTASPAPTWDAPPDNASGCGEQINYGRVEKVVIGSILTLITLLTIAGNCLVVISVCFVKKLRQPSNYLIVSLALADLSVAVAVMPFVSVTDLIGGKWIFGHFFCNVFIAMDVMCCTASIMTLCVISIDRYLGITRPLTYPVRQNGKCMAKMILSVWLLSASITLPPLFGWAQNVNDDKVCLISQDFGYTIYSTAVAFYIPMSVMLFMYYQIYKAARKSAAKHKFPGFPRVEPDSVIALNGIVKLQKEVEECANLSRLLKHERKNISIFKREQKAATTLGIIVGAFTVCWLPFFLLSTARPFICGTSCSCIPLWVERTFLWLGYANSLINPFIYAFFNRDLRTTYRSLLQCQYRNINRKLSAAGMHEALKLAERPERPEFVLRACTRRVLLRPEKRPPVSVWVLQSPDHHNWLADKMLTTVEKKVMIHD
Histamine H1 receptor (Homo sapiens), sequence (P35367 whole entry): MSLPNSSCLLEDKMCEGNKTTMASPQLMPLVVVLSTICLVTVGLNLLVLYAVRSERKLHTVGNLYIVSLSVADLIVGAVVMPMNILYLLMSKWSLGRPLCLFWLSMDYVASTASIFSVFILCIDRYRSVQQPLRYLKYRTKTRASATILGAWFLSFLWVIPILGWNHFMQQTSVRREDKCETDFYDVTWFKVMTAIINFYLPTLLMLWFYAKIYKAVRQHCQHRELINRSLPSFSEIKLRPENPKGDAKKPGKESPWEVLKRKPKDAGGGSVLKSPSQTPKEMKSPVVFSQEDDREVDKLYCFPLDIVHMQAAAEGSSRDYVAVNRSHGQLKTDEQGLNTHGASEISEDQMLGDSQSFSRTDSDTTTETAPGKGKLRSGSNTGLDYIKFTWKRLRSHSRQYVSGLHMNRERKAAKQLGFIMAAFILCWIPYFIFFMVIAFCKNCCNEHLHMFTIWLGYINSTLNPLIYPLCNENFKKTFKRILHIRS
Cytochrome P450 2C9, sequence (P11712 whole entry): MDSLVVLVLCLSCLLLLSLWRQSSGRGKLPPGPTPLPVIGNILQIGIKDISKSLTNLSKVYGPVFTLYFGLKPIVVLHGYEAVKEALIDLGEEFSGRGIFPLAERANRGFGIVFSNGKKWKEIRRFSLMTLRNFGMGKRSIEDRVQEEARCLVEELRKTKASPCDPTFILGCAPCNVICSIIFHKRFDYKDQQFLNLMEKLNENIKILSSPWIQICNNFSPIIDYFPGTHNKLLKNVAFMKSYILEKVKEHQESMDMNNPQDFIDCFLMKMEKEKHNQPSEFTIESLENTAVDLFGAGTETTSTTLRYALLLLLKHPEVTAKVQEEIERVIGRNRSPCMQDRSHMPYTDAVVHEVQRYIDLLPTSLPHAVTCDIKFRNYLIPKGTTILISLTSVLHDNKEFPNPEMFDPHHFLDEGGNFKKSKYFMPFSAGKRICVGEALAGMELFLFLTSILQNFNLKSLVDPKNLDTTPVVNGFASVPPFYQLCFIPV
3',5'-cyclic-AMP phosphodiesterase 4D (Homo sapiens), sequence (Q08499 whole entry): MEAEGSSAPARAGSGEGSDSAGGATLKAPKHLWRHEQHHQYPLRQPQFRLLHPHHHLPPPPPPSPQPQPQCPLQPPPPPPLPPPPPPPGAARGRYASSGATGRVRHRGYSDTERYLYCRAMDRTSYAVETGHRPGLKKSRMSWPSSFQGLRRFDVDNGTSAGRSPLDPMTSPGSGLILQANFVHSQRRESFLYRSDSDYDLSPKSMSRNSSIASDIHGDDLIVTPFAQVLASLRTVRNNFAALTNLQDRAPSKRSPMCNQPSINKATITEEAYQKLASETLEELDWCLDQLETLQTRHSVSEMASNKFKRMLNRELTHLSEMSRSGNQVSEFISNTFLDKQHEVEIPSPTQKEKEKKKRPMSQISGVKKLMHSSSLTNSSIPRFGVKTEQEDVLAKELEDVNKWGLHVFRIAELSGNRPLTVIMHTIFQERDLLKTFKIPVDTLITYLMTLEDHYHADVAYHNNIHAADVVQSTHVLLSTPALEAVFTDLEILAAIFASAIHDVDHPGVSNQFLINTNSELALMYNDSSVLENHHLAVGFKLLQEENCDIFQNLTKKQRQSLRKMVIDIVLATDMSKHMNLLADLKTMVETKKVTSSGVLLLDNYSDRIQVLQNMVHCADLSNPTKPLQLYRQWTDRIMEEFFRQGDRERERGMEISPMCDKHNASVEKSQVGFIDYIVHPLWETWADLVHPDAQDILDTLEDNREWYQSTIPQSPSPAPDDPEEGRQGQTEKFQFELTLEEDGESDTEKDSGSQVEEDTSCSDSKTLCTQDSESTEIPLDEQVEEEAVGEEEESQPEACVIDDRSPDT
Mu-type opioid receptor (Homo sapiens), sequence (P35372 whole entry): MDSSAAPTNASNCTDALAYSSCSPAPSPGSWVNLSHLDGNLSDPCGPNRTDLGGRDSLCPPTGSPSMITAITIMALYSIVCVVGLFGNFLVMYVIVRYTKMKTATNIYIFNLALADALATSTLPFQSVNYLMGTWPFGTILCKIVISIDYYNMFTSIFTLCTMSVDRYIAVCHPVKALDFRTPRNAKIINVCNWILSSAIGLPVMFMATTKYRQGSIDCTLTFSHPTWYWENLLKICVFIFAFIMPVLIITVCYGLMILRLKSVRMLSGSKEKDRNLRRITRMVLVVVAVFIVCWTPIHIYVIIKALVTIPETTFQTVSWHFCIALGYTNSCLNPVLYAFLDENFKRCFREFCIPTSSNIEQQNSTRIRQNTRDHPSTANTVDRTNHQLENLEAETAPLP

**Q.** With `C=C1C(=O)O[C@@H]2C[C@@]3(C)CC[C@@H](OC(=O)c4cnc(Cl)cc4Cl)C(=C)[C@@H]3C[C@H]12` as the compound, how does the Activity [1] read?
**A.** < 50%

**Q.** And the concentration at 0.5 h [2]?
**A.** 12900 ng/g

**Q.** And the inhibition (THP-1 [3])?
**A.** Active

**Q.** What about the inhibition [4] of the same compound?
**A.** < 50%

**Q.** What about the inhibition [5] of the same compound?
**A.** < 50%

**Q.** And the Activity [6]?
**A.** < 50%

**Q.** What about the IC50 (Cytochrome P450 3A4) of the same compound?
**A.** > 100 µM

**Q.** And the inhibition [7]?
**A.** < 50%

**Q.** What about the inhibition (HEK293T) of the same compound?
**A.** inactive

**Q.** What about the IC50 (Cytochrome P450 2D6) of the same compound?
**A.** > 100 µM

**Q.** What about the inhibition [8] of the same compound?
**A.** < 50%

**Q.** What about the Activity (Mus musculus [9]) of the same compound?
**A.** Active

**Q.** And the inhibition [10]?
**A.** < 50%

**Q.** And the Activity (BMDM [11])?
**A.** Active

**Q.** What about the inhibition [12] of the same compound?
**A.** < 50%

**Q.** And the IC50 (Cytochrome P450 2E1)?
**A.** > 100 µM

**Q.** What about the Activity (THP-1 [13]) of the same compound?
**A.** inactive

**Q.** What about the inhibition [14] of the same compound?
**A.** < 50%

**Q.** And the inhibition [15]?
**A.** < 50%

**Q.** And the Activity [16]?
**A.** < 50%

**Q.** What about the Activity (Mus musculus [17]) of the same compound?
**A.** Active

**Q.** And the concentration at 0.5 h [18]?
**A.** 0.22 ng/mL

**Q.** And the IC50 (Cytochrome P450 2C9)?
**A.** 5.8 µM

**Q.** What about the Activity [19] of the same compound?
**A.** < 50%

**Q.** What about the Activity [20] of the same compound?
**A.** < 50%

**Q.** And the inhibition [21]?
**A.** Active

**Q.** What about the Activity [22] of the same compound?
**A.** Non-Toxic

**Q.** What about the Activity (BMDM [23]) of the same compound?
**A.** Toxic

**Q.** What about the Activity [24] of the same compound?
**A.** < 50%

**Q.** And the Activity [25]?
**A.** < 50%

**Q.** And the inhibition [26]?
**A.** inactive

**Q.** What about the Activity (BMDM [27]) of the same compound?
**A.** Non-Toxic

**Q.** What about the inhibition [28] of the same compound?
**A.** < 50%

**Q.** And the IC50 (Cytochrome P450 2B6)?
**A.** > 100 µM

**Q.** And the inhibition (THP-1 [29])?
**A.** Active
